Here are results for two molecules from publication PMC3814616, “BRAF inhibitors suppress apoptosis through off-target inhibition of JNK signaling” (eLife, 2013).

Series [1] deals with HRAS^G12V-transformed HaCaT cells (SCR, TKD). In words: Soft agar colony formation. The following applies: 1.0 μM, SCR and TKD cells. Type of series: cell-based, human.
The subject of series [2] is Hairless mice. In words: UV-driven cSCC development in chronically-irradiated Hairless mice. Type of series: in vivo, mouse. The source says:
We also used the Hairless mouse model of squamous cell carcinoma to assess whether PLX4720 would affect UV-driven tumor development. This is particularly relevant since it appears that UV exposure is an important initiating event in BRAFi-accelerated cSCC ([Su et al., 2012]). Unlike the DMBA/TPA model, in which lesions almost universally harbor Hras mutations ([Brown et al., 1990]), the Hairless model has a very low frequency of Ras mutation in papillomas and carcinomas ([van Kranen et al., 1995]), more similar to sporadic human cSCC. […] Within 20 days of administration of drug, hyperkeratotic papules were visible on the backs of PLX4720-treated animals (Figure 5A,B), which steadily grew into cSCC over the following several weeks (Figure 5C,D). Within this period of 150 days (78 days of drug treatment), control-treated mice had not yet developed any visible lesions (Figure 5E). […]
Figure 5. […] (A and B) cDNA was reverse-transcribed from total RNA, PCR-amplified with the above primers (B) and analyzed by Sanger sequencing for mutations in both directions. No mutations in Hras, Kras, or Nras were detected in any of the papillomas (n = 5) or carcinomas (n = 3) isolated from PLX4720-treated mice. […]

The target in series [3] is T1, MST1 (STK4) (Homo sapiens, UniProt Q13043).
T1 construct: purchased KINOMEscan (DiscoveRx), San Diego, CA
T1 sequence (Q13043 1-487): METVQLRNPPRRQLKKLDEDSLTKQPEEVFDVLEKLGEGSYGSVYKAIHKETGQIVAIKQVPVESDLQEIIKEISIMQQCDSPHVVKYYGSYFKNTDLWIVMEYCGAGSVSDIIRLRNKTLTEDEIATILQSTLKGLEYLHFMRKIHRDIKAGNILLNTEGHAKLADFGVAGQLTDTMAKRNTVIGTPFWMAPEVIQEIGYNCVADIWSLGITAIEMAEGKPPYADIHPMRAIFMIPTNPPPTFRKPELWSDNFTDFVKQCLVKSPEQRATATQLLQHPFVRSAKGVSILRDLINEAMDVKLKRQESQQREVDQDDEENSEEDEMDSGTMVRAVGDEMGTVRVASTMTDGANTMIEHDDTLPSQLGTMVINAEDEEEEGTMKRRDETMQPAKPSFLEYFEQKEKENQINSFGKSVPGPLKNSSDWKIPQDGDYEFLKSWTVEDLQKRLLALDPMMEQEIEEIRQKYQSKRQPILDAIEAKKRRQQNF
Also on record: method as in Tsai et al., 2008. The following applies: ref Tsai et al., 2008; read-out: Published biochemical IC50; cited from earlier work.

Series [4] concerns the target T2, ASK1 (MAP3K5) (Homo sapiens, UniProt Q99683).
T2 construct: purchased KINOMEscan (DiscoveRx), San Diego, CA
T2 sequence (Q99683 1-1374): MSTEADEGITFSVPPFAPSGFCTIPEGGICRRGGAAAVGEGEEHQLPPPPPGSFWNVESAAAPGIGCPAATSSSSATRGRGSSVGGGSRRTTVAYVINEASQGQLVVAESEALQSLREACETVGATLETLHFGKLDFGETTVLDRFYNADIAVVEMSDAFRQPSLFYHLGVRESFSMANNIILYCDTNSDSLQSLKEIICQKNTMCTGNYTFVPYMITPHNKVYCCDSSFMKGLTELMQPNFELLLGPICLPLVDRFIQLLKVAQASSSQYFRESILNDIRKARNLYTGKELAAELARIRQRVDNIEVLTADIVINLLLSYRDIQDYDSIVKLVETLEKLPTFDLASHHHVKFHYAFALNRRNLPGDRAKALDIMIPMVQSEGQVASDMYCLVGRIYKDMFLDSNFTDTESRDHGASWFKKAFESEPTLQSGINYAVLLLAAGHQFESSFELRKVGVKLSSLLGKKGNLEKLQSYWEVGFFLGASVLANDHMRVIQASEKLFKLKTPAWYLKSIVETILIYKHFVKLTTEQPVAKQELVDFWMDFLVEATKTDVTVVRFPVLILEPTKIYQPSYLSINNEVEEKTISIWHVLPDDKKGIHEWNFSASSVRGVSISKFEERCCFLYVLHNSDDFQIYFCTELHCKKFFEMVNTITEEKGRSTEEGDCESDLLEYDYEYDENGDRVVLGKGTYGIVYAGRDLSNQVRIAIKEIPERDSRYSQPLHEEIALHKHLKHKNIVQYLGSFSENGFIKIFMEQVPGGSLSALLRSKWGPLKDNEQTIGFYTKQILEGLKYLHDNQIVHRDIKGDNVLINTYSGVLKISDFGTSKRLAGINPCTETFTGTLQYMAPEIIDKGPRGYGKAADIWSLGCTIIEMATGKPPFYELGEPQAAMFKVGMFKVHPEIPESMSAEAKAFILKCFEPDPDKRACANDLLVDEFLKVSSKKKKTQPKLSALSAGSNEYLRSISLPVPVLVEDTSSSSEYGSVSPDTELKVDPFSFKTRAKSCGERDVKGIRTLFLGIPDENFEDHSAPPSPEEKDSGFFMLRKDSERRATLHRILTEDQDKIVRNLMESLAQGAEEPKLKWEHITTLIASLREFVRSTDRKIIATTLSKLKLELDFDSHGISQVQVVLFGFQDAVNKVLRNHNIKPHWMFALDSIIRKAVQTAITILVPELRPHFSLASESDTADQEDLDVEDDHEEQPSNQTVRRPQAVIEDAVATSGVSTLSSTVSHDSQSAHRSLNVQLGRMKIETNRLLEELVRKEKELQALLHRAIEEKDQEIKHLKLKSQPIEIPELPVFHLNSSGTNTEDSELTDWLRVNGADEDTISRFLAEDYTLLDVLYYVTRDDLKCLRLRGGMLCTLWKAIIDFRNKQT
Also on record: method as in Bollag et al., 2010. The following applies: ref Bollag et al., 2010; read-out: Published biochemical IC50; cited from earlier work.

The IC50 is the point on the concentration scale where inhibition reaches its midpoint. In the case of `CCCS(=O)(=O)Nc1ccc(F)c(C(=O)c2c[nH]c3ncc(Cl)cc23)c1F` [PLX4720], the colony formation entry in series [1] is given as “significant colony formation advantage”. Besides, in series [2] (chronically-irradiated Hairless mice), the “reduction in latency of papillomas and cSCC” value is “at least 10 weeks”. Besides, the “time from start of drug to visible hyperkeratotic papules” value in series [2] (drug-impregnated chow from day 72, 12.5 kJ/m^2 per week UVB) is given as at most 20 days. Also, the IC50 in series [3] is above 5000 nM.
On to `CCCS(=O)(=O)Nc1ccc(F)c(C(=O)c2c[nH]c3ncc(-c4ccc(Cl)cc4)cc23)c1F` [vemurafenib], for which, in series [4], the IC50 was above 1000 nM.
